A short description of data set [1]: Maximum […] (Bmax) was determined. As to conditions: in vivo. It is filed as ADME, organism-based.
The target in data set [2] is T1, D(2) dopamine receptor (Rattus norvegicus, UniProt P61169). The experiment in a line: Evaluated in vitro for the affinity towards Dopamine receptor D2 of rat striatal tissue.
Data set [3] deals with T1, D(2) dopamine receptor. The experiment in a line: Competitive binding assay against Dopamine receptor D2 in rat striatal membranes and [125I]-IBF radioligand. It counts as cell membranes, Striatum, Membrane.

The text below walks through data of ChEMBL document CHEMBL1125116 (J Med Chem, 1990).

pKd, pKi: −log10 of the molar value.

T1 sequence (P61169 whole entry): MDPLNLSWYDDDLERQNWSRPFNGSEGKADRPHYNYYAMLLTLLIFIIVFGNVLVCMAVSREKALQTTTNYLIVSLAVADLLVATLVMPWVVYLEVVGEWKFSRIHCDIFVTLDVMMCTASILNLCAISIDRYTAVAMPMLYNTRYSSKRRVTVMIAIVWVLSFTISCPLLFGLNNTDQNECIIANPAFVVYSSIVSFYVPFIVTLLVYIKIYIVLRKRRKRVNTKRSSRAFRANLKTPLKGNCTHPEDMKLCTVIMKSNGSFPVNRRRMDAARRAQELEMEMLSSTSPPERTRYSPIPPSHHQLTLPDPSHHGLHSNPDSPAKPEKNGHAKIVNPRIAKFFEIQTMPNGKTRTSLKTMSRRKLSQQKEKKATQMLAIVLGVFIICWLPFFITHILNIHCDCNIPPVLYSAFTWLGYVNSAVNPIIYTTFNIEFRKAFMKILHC

For orientation: pKd means the Kd on a negative log10 scale, so that one unit is a factor of ten. The low end stands for a high Kd, the high end for a low Kd. With `CN1CN(c2ccccc2)C2(CCN(CCCC(=O)c3ccc(F)cc3)CC2)C1=O` [MESPIPERONE], the Bmax in data set [1] amounted to 16.6 pM/g. Further, on D(2) dopamine receptor [2], the pKd was 10.01.

As to `COc1cc(N=[N+]=[N-])c(I)cc1C(=O)NC1CCN(Cc2ccccc2)CC1` [IODOAZIDOCLEBOPRIDE], the negative logarithm of the Kd (pKd) on D(2) dopamine receptor [2] is 7.85.

Consider `CCN1CCC[C@H]1CNC(=O)c1c(OC)ccc(I)c1O` [IOLOPRIDE], for which the pKd at D(2) dopamine receptor [2] was 9.37.

As usually defined, the pKi is the negative decadic logarithm of the Ki, by convention in mol/L. Take `NC1CCc2cc(O)c(O)cc2C1` (racemic): on D(2) dopamine receptor [3], the pKi is 7.18.
